Reference: patent US12077503B2, “Substituted cyclic amides and their use as herbicides” (FMC CORPORATION, priority 2015, dated 2024)
Where two headings read alike, the source gives them in different places.

How the values were obtained:
Type in all cases: in vivo
[1] = system: Galium (catchweed bedstraw, Galium aparine); test: Test A postemergence; conditions: Galium, post-emergence, 240 h, Postemergence; for pest or weed control at 125 g/ha: 125 g ai/ha, visual rating about 10 d after treatment, read-out: Galium plant response rating (0 to 100 scale); for pest or weed control at 500 g/ha: 500 g ai/ha, visual injury, 0 to 100 scale (0 no effect, 100 complete control), approx. 10 d, read-out: Plant response rating, Galium
Procedure, shortened: (§1)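 Compounds were formulated in a non-phytotoxic solvent mixture with surfactant and applied as a preemergence directed soil spray after seeding, or sprayed postemergence over plants 2 to 10 cm tall at the one- to two-leaf stage. Evaluation after about 10 d compared treated with untreated controls, using a scale from 0 (no effect) to 100 (complete control).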

[2] = system: Kochia (Kochia scoparia); test: Test A postemergence; conditions: Bassia scoparia, post-emergence, 240 h, Postemergence; for pest or weed control at 125 g/ha: 125 g ai/ha, visual rating about 10 d after treatment, read-out: Kochia plant response rating (0 to 100 scale); for pest or weed control at 500 g/ha: 500 g ai/ha, visual injury, 0 to 100 scale (0 no effect, 100 complete control), approx. 10 d, read-out: Plant response rating, Kochia
Procedure, shortened: as §1

[3] = system: barnyardgrass (Echinochloa crus-galli); test: Test A postemergence; conditions: Echinochloa crus-galli, post-emergence, 240 h, Postemergence; for pest or weed control at 125 g/ha: 125 g ai/ha, visual rating about 10 d after treatment, read-out: Barnyardgrass plant response rating (0 to 100 scale, 0 no effect, 100 complete control); for pest or weed control at 500 g/ha: 500 g ai/ha, visual injury, 0 to 100 scale (0 no effect, 100 complete control), approx. 10 d, read-out: Plant response rating, Barnyardgrass
Procedure, shortened: as §1

[4] = system: blackgrass (Alopecurus myosuroides); test: Test A postemergence; conditions: Alopecurus myosuroides, post-emergence, 240 h, Postemergence; for pest or weed control at 125 g/ha: 125 g ai/ha, visual rating about 10 d after treatment, read-out: Blackgrass plant response rating (0 to 100 scale); for pest or weed control at 500 g/ha: 500 g ai/ha, visual injury, 0 to 100 scale (0 no effect, 100 complete control), approx. 10 d, read-out: Plant response rating, Blackgrass
Procedure, shortened: as §1

[5] = system: corn (Zea mays); test: Test A postemergence; conditions: Zea mays, post-emergence, 240 h, Postemergence; for plant injury at 125 g/ha: 125 g ai/ha, visual rating about 10 d after treatment, read-out: Corn plant response rating (0 to 100 scale); for Corn plant response rating (crop injury, 0 = no effect, 100 = complete kill) at 500 g/ha: 500 g ai/ha, visual injury, 0 to 100 scale (0 no effect, 100 complete control), approx. 10 d
Procedure, shortened: as §1

[6] = system: giant foxtail (Setaria faberii); test: Test A postemergence; conditions: Setaria faberi, post-emergence, 240 h, Postemergence; for pest or weed control at 125 g/ha: 125 g ai/ha, visual rating about 10 d after treatment, read-out: Foxtail, Giant plant response rating (0 to 100 scale); for pest or weed control at 500 g/ha: 500 g ai/ha, visual injury, 0 to 100 scale (0 no effect, 100 complete control), approx. 10 d, read-out: Plant response rating, Foxtail, Giant
Procedure, shortened: as §1

[7] = system: pigweed (Amaranthus retroflexus); test: Test A postemergence; conditions: Amaranthus retroflexus, post-emergence, 240 h, Postemergence; for pest or weed control at 125 g/ha: 125 g ai/ha, visual rating about 10 d after treatment, read-out: Pigweed plant response rating (0 to 100 scale); for pest or weed control at 500 g/ha: 500 g ai/ha, visual injury, 0 to 100 scale (0 no effect, 100 complete control), approx. 10 d, read-out: Plant response rating, Pigweed
Procedure, shortened: as §1

[8] = system: ragweed (common ragweed, Ambrosia elatior); test: Test A postemergence; conditions: Ambrosia artemisiifolia, post-emergence, 240 h, Postemergence; for pest or weed control at 125 g/ha: 125 g ai/ha, visual rating about 10 d after treatment, read-out: Ragweed plant response rating (0 to 100 scale); for pest or weed control at 500 g/ha: 500 g ai/ha, visual injury, 0 to 100 scale (0 no effect, 100 complete control), approx. 10 d, read-out: Plant response rating, Ragweed
Procedure, shortened: as §1

[9] = system: ryegrass, Italian (Italian ryegrass, Lolium multiflorum); test: Test A postemergence; conditions: Lolium multiflorum, post-emergence, 240 h, Postemergence; for pest or weed control at 125 g/ha: 125 g ai/ha, visual rating about 10 d after treatment, read-out: Ryegrass, Italian plant response rating (0 to 100 scale); for pest or weed control at 500 g/ha: 500 g ai/ha, visual injury, 0 to 100 scale (0 no effect, 100 complete control), approx. 10 d, read-out: Plant response rating, Ryegrass, Italian
Procedure, shortened: as §1

[10] = system: wheat (Triticum aestivum); test: Test A postemergence; conditions: Triticum aestivum, post-emergence, 240 h, Postemergence; for plant injury at 125 g/ha: 125 g ai/ha, visual rating about 10 d after treatment, read-out: Wheat plant response rating (0 to 100 scale); for plant injury at 500 g/ha: 500 g ai/ha, visual injury, 0 to 100 scale (0 no effect, 100 complete control), approx. 10 d, read-out: Plant response rating, Wheat
Procedure, shortened: as §1

[11] = system: barnyardgrass (Echinochloa crus-galli); test: Test B flooded paddy test; conditions: Echinochloa crus-galli, 250 g ai/ha, Flood; 0 to 100 scale where 0 is no effect and 100 is complete control; read-out: Barnyardgrass plant response rating
Procedure, shortened: (§2)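 2-leaf plants; pots flooded 3 cm over soil; cpd added to paddy water; depth held; greenhouse 13–15 d; visual rating vs controls, 0 = no effect, 100 = complete control.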

[12] = system: ducksalad (Heteranthera limosa); test: Test B flooded paddy test; conditions: Heteranthera limosa, 250 g ai/ha, Flood; 0 to 100 scale where 0 is no effect and 100 is complete control; read-out: Ducksalad plant response rating
Procedure, shortened: as §2

[13] = system: rice (Oryra sativa); test: Test B flooded paddy test; conditions: Oryza sativa, 250 g ai/ha, Flood; 0 to 100 scale where 0 is no effect and 100 is complete control; read-out: Rice plant response rating
Procedure, shortened: as §2

[14] = system: sedge, umbrella (small-flower umbrella sedge, Cyperus difformis); test: Test B flooded paddy test; conditions: Cyperus difformis, Flood, 250 g ai/ha
Procedure, shortened: as §2

| SMILES | pest or weed control at 125 g/ha [1] [%] | pest or weed control at 500 g/ha [1] [%] | pest or weed control at 125 g/ha [2] [%] | pest or weed control at 500 g/ha [2] [%] | pest or weed control at 125 g/ha [3] [%] | pest or weed control at 500 g/ha [3] [%] | pest or weed control at 125 g/ha [4] [%] | pest or weed control at 500 g/ha [4] [%] | plant injury at 125 g/ha [5] [%] | Corn plant response rating (crop injury, 0 = no effect, 100 = complete kill) at 500 g/ha [5] [%] | pest or weed control at 125 g/ha [6] [%] | pest or weed control at 500 g/ha [6] [%] | pest or weed control at 125 g/ha [7] [%] | pest or weed control at 500 g/ha [7] [%] | pest or weed control at 125 g/ha [8] [%] | pest or weed control at 500 g/ha [8] [%] | pest or weed control at 125 g/ha [9] [%] | pest or weed control at 500 g/ha [9] [%] | plant injury at 125 g/ha [10] [%] | plant injury at 500 g/ha [10] [%] | also measured |
| --- | --- | --- | --- | --- | --- | --- | --- | --- | --- | --- | --- | --- | --- | --- | --- | --- | --- | --- | --- | --- | --- |
| CN1C[C@H](c2cccc(C(C)(F)F)c2)[C@@H](C(=O)Nc2ccccc2S(C)(=O)=O)C1=O [Compound 1318] | 60 | 60 | 0 | 40 | 80 | 90 | 70 | 70 | 60 | 80 | 90 | 90 | 30 | 40 | 10 | 60 | 20 | 40 | 50 | 80 | pest or weed control at 250 g/ha [11]: 65%; pest or weed control at 250 g/ha [12]: 85%; pest or weed control at 250 g/ha [13]: 0%; pest or weed control at 250 g/ha ([14]; 360 h, visually evaluated after 13 to 15 d, read-out: Plant response rating, Sedge, Umbrella (0 to 100 scale where 0 is no effect and 100 is complete control)): 0% |
| Cc1c(F)cccc1NC(=O)[C@H]1C(=O)NC[C@@H]1c1cccc2c1OC(F)(F)O2 [Compound 1305] | 0 | 0 | 0 | 0 | 60 | 80 | 0 | 0 | 0 | 0 | 80 | 90 | 0 | 0 | 0 | 0 | 0 | 0 | 0 | 20 | pest or weed control at 250 g/ha [11]: 20%; pest or weed control at 250 g/ha [12]: 70%; pest or weed control at 250 g/ha [13]: 0%; pest or weed control at 250 g/ha ([14]; 0 to 100 scale where 0 is no effect and 100 is complete control, read-out: Sedge, Umbrella plant response rating): 0% |
